Experimental data published in patent US11045745B2, “Reactive extraction of water” (University of Pittsburgh—Of the Commonwealth System of …, priority 2017, dated 2021).
Marks after values point to notes of the source that are not given here.

Assays:
Assay type in all cases: physicochemical
[1] = Ketone hydration to diol equilibrium constant by room temperature NMR (Technique 1); conditions: for KH,app at 20 ± ° C. (1H) / KH,app at 20 ± ° C. (19F): d6-DMSO/H2O (1/1, mol/mol); for KH,app at 20 ± ° C. (1H): 1H NMR; for KH,app at 20 ± ° C. (19F): 19F NMR
Protocol: (§1) Ketone hydration to diol equilibrium constants (KH) and thermodynamic parameters for Example compounds were measured by NMR by adapting techniques from the literature [Bushman et al., Berichte der Bunsengesellschaft für physikalische Chemie, 84: 41-44 (1980); Greenzaid et al., J. Amer. Chem. Soc. 89: 749-756 (1967); and R. Stewart and J. D. Van Dyke, Can. J. Chem. 50: 1992-1999 (1972)] using either Technique 1 (IIa) or Technique 2 (IIb), further deviations to the general methods are noted with those Examples. D2O concentration was minimized to reduce the isotope effect (˜20% according to Bushman 1980).
(§2) The conversion from ketone to diol results in an upfield change in nuclear chemical shift. This change in nuclear resonance frequency can then be used to distinguish between ketone and diol peaks in the NMR spectrum. Since area integration of NMR peaks is directly related to the number of atoms resonating at that frequency, the area ratio between diol and ketone peaks can be used to calculate equilibrium constants. Assuming water is in high excess relative to the ketone its activity can be treated as unity resulting in the KH being only dependent on the relative peak integration ratio of diol/ketone:
In many Examples, only a single resonance for each species was available for to determine the diol/ketone ratio. Where available equilibrium constants were calculated by averaging multiple resonance together normalized by number of hydrogens associated with each of them.
Due to the insolubility of some ketones in water, DMSO was used as a co-solvent at 50% by mole. Equilibrium constants obtained with DMSO as a co-solvent are only apparent constants (KH,app) since this alters the activities of the compounds relative to a pure water solvent. […] J. Chem. 50: 1992-1999 (1972)].
In a volumetric flask, ketones were dissolved to a concentration of approximately 0.5 M in 50 mol % d^6-DMSO/H2O. Solutions were left to equilibrate overnight then transferred to an NMR tube for analysis. Solutions were measured by ^1H NMR at (400 MHz) or ^19F NMR (376 MHz) at ambient temperature (20±1° C.).
(§3) This should not affect the measured hydration equilibrium greatly though since water is in such high excess. From Examples 2-2 to 2-5, the tunability of the hydration constant by altering the substituent on the benzyl ring is readily apparent.

[2] = Ketone hydration equilibrium and thermodynamic parameters by variable temperature NMR (Technique 2), van't Hoff fit; conditions: for ΔG ° / ΔH ° / −TΔS °: van't Hoff fit; for KH at 25° C. (KH,app): apparent constant
Protocol: as §1, §2
For a select set of compounds a series of variable temperature NMR measurements (IIB: Technique 2) were made to extract reaction standard enthalpy)(ΔH°) and entropy(ΔS°) contributions to free energy of hydration)(ΔG°). Equilibrium constants versus temperature data were fit to the van't Hoff equation to determine ΔH°, ΔS°, and ΔG°; changes in heat capacity were assumed to be negligible:
In a volumetric flask (1.00, 2.00, or 10.00 mL) ketones were dissolved to a concentration of approximately 0.5 M in solvents composed of either D2O/H2O (5/95, v/v; method 2a) or d^6-DMSO/DMSO/H2O (10/40/50 by moles; method 2b). The solution was left to equilibrate at room temperature overnight then transferred to a standard NMR tube.
A series of 1H NMR (400 MHz)measurements were made with variable temperature control (0.1° C. precision) ranging from 25-65° C., typically in 10° C. increments. At each increment once the temperature had stabilized to within ±0.2° C. of the goal, samples were equilibrated for 5 minutes prior to the measurement.
The van't Hoff equation was then fit to a plot of KH vs. temperature; energy standard deviation were calculated from the fit of the equation to the raw data.
Examples 2-6 and 2-11 were prepared using variations to the standard procedure. Example 2-6 was prepared with a concentration of 50 mM, so that it was soluble in water. For Example 2-11, a small amount of enol was also observed (about 0.08 relative to ketone). To account for this, we calculated KH for Example 2-11 as diol/(ketone+enol), assuming enol formation from the ketone is reversible.

[3] = Solubility in water (remark on sample preparation)
Excerpt: as §3

Row | SMILES | KH,app at 20 ± ° C. (19F) [1] | KH at 25° C. ([2]; D2O/H2O (5/95, v/v)) | ΔG ° ([2]; D2O/H2O (5/95, v/v)) [kJ/mol] | ΔH ° ([2]; D2O/H2O (5/95, v/v)) [kJ/mol] | −TΔS ° ([2]; D2O/H2O (5/95, v/v)) [kJ/mol] | also measured
1 | CC(F)(F)C(=O)c1ccccc1 [Example 2-2, 2,2-difluoro-1-phenyl-1-propanone] | 3.3 | – | – | – | – | KH,app at 20 ± ° C. (1H) [1]: 2.8
2 | CC(=O)C(C)(C)C#N [Example 2-6] | – | 0.063 | 6.8 ± 2 | -24.5 ± 1.5 | 31.3 ± 1.4 | –
3 | O=C(CF)CF [Example 2-9] | – | 27 | -8.1 ± 1 | -31.4 ± 0.7 | 23.3 ± 0.7 | –
4 | O=C(c1ccccc1)C(F)(F)F [Example 2-5] | 370 (^19F) | – | – | – | – | –
5 | COc1ccc(C(=O)C(F)(F)F)cc1 [Example 2-3] | 23 | – | – | – | – | KH,app at 20 ± ° C. (1H) [1]: 21
6 | CCC(=O)C(C)=O [Example 2-11] | – | 1.5 | -1.1 ± 0.5 | -22.9 ± 0.5 | 21.8 ± 0.5 | KH at 25° C. (KH,app) ([2]; DMSO/H2O (1/1, mol/mol)): 0.45^a; ΔG ° ([2]; DMSO/H2O (1/1, mol/mol)): 2 kJ/mol; ΔH ° ([2]; DMSO/H2O (1/1, mol/mol)): -24 kJ/mol; −TΔS ° ([2]; DMSO/H2O (1/1, mol/mol)): 26 kJ/mol; enol observed relative to ketone ([2]; NMR): about 0.08
7 | CC(=O)C(C)=O [Example 2-10] | – | 2.5 | -2.2 ± 1.5 | -25 ± 1.5 | 22.8 ± 1.5 | –
8 | O=C1CCCCC1F (stereo not drawn) [Example 2-8] | – | – | – | – | – | KH at 25° C. (KH,app) ([2]; DMSO/H2O (1/1, mol/mol)): 0.52^a; ΔG ° ([2]; DMSO/H2O (1/1, mol/mol)): 4 ± 0.7 kJ/mol; ΔH ° ([2]; DMSO/H2O (1/1, mol/mol)): -22.4 ± 0.4 kJ/mol; −TΔS ° ([2]; DMSO/H2O (1/1, mol/mol)): 26.4 ± 0.6 kJ/mol
9 | CC(=O)C(C)(C)[N+](=O)[O-] [Example 2-1, 3-methyl-3-nitrobutan-2-one] | – | – | – | – | – | solubility in water [3]: low solubility in water; KH,app at 20 ± ° C. ([1]; D2O/H2O (5/95, v/v), 23 mM): 0.22
10 | O=C(c1ccc(F)cc1)C(F)(F)F [Example 2-4] | 500 (^19F) | – | – | – | – | –
